Test system: arthritic symptoms
Experiment: Clinical trials: topical application for arthritis symptoms
Type: in vivo, human
Conditions: Subject No. 1, inflamed finger joint; injected locally and up to 80 mg orally over four to five months
Description: In addition, the entire finger and part of the hand was affected by the pain and the swelling resulting in restricted use of the hand.
The steroids were both injected locally and ingested in the form of up to 80 mg of prednazone, which was taken orally over a period of four to five months.
During this period, the frequency of the application of the cream or lotion and heat gradually diminished to three times per day without a need for augmentation of the treatment with heat.
Onset of these symptoms can result in a two- to three-fold increase in the size of a joint, with an inflammation of the surrounding tissue. This can occur in a matter of hours and affects the associated limb resulting in substantial pain, a loss of strength in the entire limb, sleep interruption (due to pain), and general malaise due to the intensity and continuous nature of the throbbing.

C[C@]12C=CC(=O)C=C1CC[C@@H]1[C@@H]2C(=O)C[C@@]2(C)[C@H]1CC[C@]2(O)C(=O)CO [prednazone]
relief of pain and swelling by conventional steroid treatment: some initial success in relieving both the pain and swelling, but upon elimination of the drug, the symptoms returned
